Measured values: patent US20070196514A1, “Prostate cancer treatment with glycogen synthase kinase-3beta inhibitors” (priority 2006, published 2007)

Key:
Assay type in all cases: cell-based, human
PC-3 cells [1] = assay: trypan blue viable cell counting
Protocol: (§1) For cell counting assay, cells were seeded at the density of 5×10^4 cells in 12-well plates in duplicates and allowed for attachment overnight. Cells were harvested daily for three days and the number of viable cells was counted using a hemocytometer after staining in trypan blue solution (Liao 2003).
(§2) First, the effect of LiCl on cell growth was investigated. AR-positive, androgen-dependent LNCaP cells or AR-null PC-3 cells were seeded in a 12-well plate overnight and then treated with or without LiCl in different doses.

LNCaP cells [2] = assay: trypan blue viable cell counting
Protocol: as §1, §2

LNCaP cells [3] = assay: Western blot of cell cycle-related proteins
Protocol: Western blot was carried out as described previously (Liao 2004, Liao 2003, and Liao 2005). Briefly, cells were pellets and lysed in radio-immunoprecipitation assay (“RIPA”) buffer containing protease inhibitors (Half™ Protease Inhibitor Cocktail Kit, PIERCE, Rockford, Ill.). Proteins were separated on SDS-PAGE gels and transferred to Immuno-Blot™ PVDF membrane (BIO-RAD, Hercules, Calif.). Membranes were blocked in a tris-buffered solution plus Tween 20 (“TBST”) solution with 5% nonfat dry milk and incubated with primary antibodies overnight at 4° C. Immunoreactive signals were detected by horseradish peroxidase-conjugated secondary antibodies (Santa Cruz Biotech., Santa Cruz, Calif.) followed by SuperSingnal® WestFeml® Maximum Sensitivity Substrate (PIERCE).
To verify those alterations at a protein level, two series experiments were conducted using Western blot technique. The first involved a time-course experiment. After serum starvation, LNCaP cells were left untreated or treated as before with LiCl for up to 24 hours. Cells were harvested at 18-24 hours.
Next, a dose-response experiment was performed. Following serum starvation for 24 hours, LNCaP cells were treated with BIO at different doses for another 24 hours. Control cells received the vehicle as treatment.

PC-3 cells [4] = assay: MTT cell growth assay; conditions: equimolecular concentrations of LiCl, NaCl, KCl, three days
Protocol: (§3) For MTT-based cell growth assays, cells seeded in 96-well plates were serum-starved for 48 hours, and were then treated with vehicle or different reagents for different time periods as indicated in the figures. MTT assay were carried out using a pre-assembled kit (Sigma) according to the manufacturer's manual.
(§4) To rule out the eventual intervention of the chloride anion and the osmotic disturbance, the effect of LiCl was compared with sodium chloride (“NaCl”) and potassium chloride (“KCl”) at equimolecular concentrations in both LNCaP and PC-3 cell lines. In addition, the androgen-insensitive C4-2 cell line was included. To easily handle the experiments while multiple comparisons were taken in place, a MTT assay was used to assess cell growth.

C4-2 cells = assay: MTT cell growth assay; conditions: equimolecular concentrations of LiCl, NaCl, KCl, three days
Protocol: as §3, §4

HEK293 cells = assay: Affymetrix cDNA microarray for LiCl-induced changes; conditions: LiCl treatment, data not shown
Protocol: Androgen-insensitive C4-2 cells and HEK293 cells were used for cDNA-based microarray analysis. After serum starvation for 24 hours, cells were left untreated or treated with LiCl (10 mM) in serum free media for 30 minutes whereas the control cells received PBS in the same media. Then 10% FBS was brought back to both control and LiCl pre-treated cells and incubated for another 6 hours. At the end of treatment, total cellular RNAs were extracted using Trizol-based protocol as described (Liao 2005).
Genechip® arrays (Affymetrix Inc, Santa Clara, Calif.) used herein contain almost 45,000 probe sets representing more than 39,000 transcripts derived from approximately 33,000 well substantial human genes. The in vitro-transcription labeling is conducted using the EnzoBio array high yield RNA transcript labeling kit (Affymetrix). Ten micrograms of total RNAs were used for the first strand cDNA synthesis using the SuperscriptChoice system (Invitrogen).
Genechips were hybridized for 16 hours at 45° C. and 60 rpm in Genechip hybridization oven Model 640. After washing the Genechip, the signal intensity was detected using the Agilent Gene Array scanner.
The most dramatic changes were down-regulation of cdc6, cdc25C, cyclins A and E, as well as up-regulation of CDK inhibitor p21^CIP1. […]

LNCaP cells [5] = assay: MTT cell growth assay; conditions: equimolecular concentrations of LiCl, NaCl, KCl, three days
Protocol: as §3, §4
Lastly, two GSK-3β-specific small chemical inhibitors, SB216763 and BIO, were used to verify that LiCl-induced suppression of cell growth is due to GSK-3β inhibition. LNCaP cells were seeded as above and then treated with increasing doses of the inhibitors in a full culture medium. Cell growth was assessed three days later by MTT assay.

PC-3 cells [6] = assay: clonogenic assay; conditions: LiCl 10 mM, 14 days
Protocol: For clonogenic assays, 1.0×10^3 cells were seeded in a 35-mm dish and cultured in a medium containing LiCl at the indicated doses. The cultures were monitored daily for colony formation. On day 14, the cultures were washed with phosphate-buffered saline (“PBS”), fixed, and stained as described previously (Liao 2005). The colonies were counted and photographed under an inverted microscope.
Next, the clonogenic assay was used to test the effect of LiCl on cell colony formation. The clonogenic survival fractions of the cells cultured in the presence or absence of increasing concentration of LiCl were measured in two cell lines, androgen refractory PC-3 (data shown) and androgen-responsive LNCaP (data not shown).

LNCaP cells [7] = assay: cell cycle analysis by flow cytometry (PI); conditions: serum-starved 24 hours then full media with LiCl up to 24 hours
Protocol: For cell cycle analysis, serum-starved cells were left untreated or treated with different inhibitors for various time periods as indicated in the figures. After trypsinization, the cells were fixed and stained with propidium iodide (“PI”). Cell cycle distribution of PI-labeled cells was analyzed on a fluorescence activated cell sorter (Model EPICS XL-MCL, Beckman-Coulter Co., Fullerton, Calif.) as described previously (Miyake 2001).
LNCaP cells were first serum-starved for 24 hours, and were then released by returning them to full culture media in the presence or absence of LiCl for up to 24 hours. Cell cycle distribution was analyzed by flow cytometry (“FCM”). […] When serum was added back in the culture (the control), cells re-entered into cell cycle.

[8] = LiCl at a dose of less than 3 mM, up to three days

`[Cl-].[Li+]` [LiCl, Lithium chloride] was tested, and the “inhibition of cell growth (viable cell count)” value (shortened to “inhibition of cell growth”) (PC-3 cells [1]; LiCl 10 mM) was “significantly inhibited”, the mean doubling-time (PC-3 cells [1]; LiCl 10 mM (no treatment 21.5 hours)) was 30.2 h and the “inhibition of cell growth” value (PC-3 cells [1]; [8]) was “no obvious inhibition”. For the same compound, the “inhibition of cell growth” value (LNCaP cells [2]; LiCl 10 mM) was “significantly inhibited”, the mean doubling-time (LNCaP cells [2]; LiCl 10 mM (no treatment 23.7 hours)) was 33.3 h and the “inhibition of cell growth” value (LNCaP cells [2]; [8]) was “no obvious inhibition”. For the same compound, the “protein levels of cyclin B, PCNA, pRb, cdc2, cdc42 and GSK-3β (Western blot)” value (LNCaP cells [3]; LiCl time-course) was “no significant change”, the “serum-induced increase of cyclins A and E, cdc6 and cdc25C protein (Western blot)” value (LNCaP cells [3]; LiCl time-course up to 24 hours) was “dramatically suppressed” and the “protein levels of cyclin D1 (Western blot)” value (LNCaP cells [3]; LiCl time-course, vs control) was “slightly higher”. For the same compound, the “p21CIP1 protein expression (Western blot)” value (LNCaP cells [3]; LiCl time-course, vs untreated control) was “increased significantly”, the “cell growth inhibition (MTT)” value (PC-3 cells [4]) was “dramatic inhibition” and the “cell growth inhibition (MTT)” value (C4-2 cells) was “dramatic inhibition”. For the same compound, the “alterations of cell cycle genes (microarray)” value (HEK293 cells) was “not observed”, the “cell growth inhibition (MTT)” value (LNCaP cells [5]) was “dramatic inhibition” and the clonogenic surviving fractions (PC-3 cells [6]) was “significantly suppressed”. The “portion of S-phase cells” value (LNCaP cells [7]) was “dramatically increased”.
